This is an account of results in paper PMC6920827, “Characterization of the Expression and Functions of Two Odorant-Binding Proteins of Sitophilus zeamais Motschulsky (Coleoptera: Curculionoidea)” (Insects, 2019).

The structures appear in SMILES notation. Read-outs that look alike come from different tables or passages of the source.

One assay addresses SzeaOBP1 (Sitophilus zeamais, UniProt A0A4P9CZ78). Description: Fluorescence competitive binding assay (1-NPN probe) with recombinant SzeaOBP1. How it is done: (§1) Emission fluorescence spectra were recorded on a Fluoromax-4500 fluorescence spectrophotometer (Hitachi, Tokyo, Japan) at room temperature in right-angle configuration, with a 1 cm light-path quartz cuvette and 5 nm slits for both excitation and emission. The protein was dissolved in 50 mM Tris-HCl buffer (pH 7.4), and ligands were added as 1 mM methanol solutions. A methanol solution of N-Phenyl-1-naphthylamine (1-NPN) (1 mM) was used as the fluorescent probe, and chromatography-grade methanol was used as the solvent. For determination of the binding constants of the SzeaOBPs with the probe, the excitation wavelength was set at 337 nm, and the emission wavelength was increased from 370 to 500 nm for scanning. The target SzeaOBP proteins were diluted in Tris-HCl buffer (pH 7.4) to a final concentration of 2 μM. After the sample was added, the fluorescence intensity was allowed to stabilize (approximately 15 s), and the maximum fluorescence intensity was recorded; the binding constant between the protein and probe was determined. This process was repeated three times for each sample. Then, the ligands (odorant standard samples) were diluted with pure methanol for competitive binding analysis. The final concentration of each ligand was […]. The final concentration of ligands in the colorimetric dish increased by 2 μM upon adding the ligands one by one. […] The binding constants between the target SzeaOBP proteins and the ligands were determined. The fluorescence intensity was measured by adding 50 mM Tris-HCl buffer, SzeaOBP protein, and the fluorescence probe 1-NPN to the colorimetric dish for fluorescence measurement. The final concentration was 2 μM. When the fluorescence intensity was stable, the maximum fluorescence intensity was recorded, and then the ligands dissolved in methanol were added to the colorimetric dish one by one. The concentration increased from 2 μM, and the changes in fluorescence intensity were recorded. Each measurement was repeated three times.
(§2) To calculate the binding constants, the fluorescence intensity and ligand concentration were plotted using GraphPad Prism 5. Assuming that 1-NPN binds to the protein at a 1:1 ratio and that the protein was 100% active, the curve was linearized using a Scatchard plot.

For the next assay, the target named is SzeaOBP28 (Sitophilus zeamais, UniProt A0A4V1GPX2). Description: Fluorescence competitive binding assay (1-NPN probe) with recombinant SzeaOBP28. How it is done: as §1, §2
The next assay relates to adult S. zeamais. The assay is described as follows: Behavioural experiment in a Y-tube olfactometer, normal adults. The settings on record: normal insects, 10 min observation. Format: in vivo, Sitophilus zeamais. How it is done: The behavioral experiments were designed to test the results for selected odorants. The odorant compounds used in behavioral experiments are from Table 1. To avoid the effects of temperature and light on the experiment, the evaluations were performed in a constant temperature and humidity (CTH) room at 28 ± 1 °C and 80% relative humidity under dim light supplied by a red fluorescent tube with no natural lighting. A Y-tube olfactometer system that was previously described by Yusuf and Takabayashi was used to test the attractiveness of different odorant treatments to adult maize weevils. The system comprised a central tube (10 cm long) and two lateral arms (each 15 cm long and 15 mm wide). The angles between the two arms were 75°. Each arm was connected to a glass chamber (200 mL capacity) holding the different odorants. The different parts of the device were connected in the following order: air pump, activated carbon filter, distilled water humidifier, odorant source device, gas flow meter, and Y-tube olfactometer. The parts were connected by Teflon tubes. Airflow through both arms was generated by applying air pressure, and the air was purified using a charcoal-filled gas wash bottle. The airflow through the arms of the Y-tube (150 mL/min/arm) was adjusted by using flow metres, which were positioned between the flasks and the Y-tube. A clean Y-tube was used for each test to avoid carryover of odorants.
Before bioassays, according to the experimental requirements, the odorant source was placed in the odorant source device, which was then ventilated for 15 min so that the odorant filled the tube to ensure accuracy of the test results. The antennae and appendages of the selected insects were verified to be intact, and the insects were confirmed to be active. The insects were introduced from the base of the main arm of the Y-tube olfactometer. The selected odorant was used for the treatment group, and a blank was used for the control group. A single adult S. zeamais insect was introduced into the Y-tube olfactometer at the entrance of the stem, with a maximum observation duration of 10 min per beetle, and the responses were considered positive when the insects reached at least 2 cm along the arm connected to the test chambers. […] Insects were used only once and then discarded. Each odorant was used to test 30 adult maize weevils, and the number of male and female insects per test was the same. Three groups of experiments were repeated for three times.

Setting [1] is: calculated from IC50 with K1-NPN 8.590 μM, protein and 1-NPN 2 μM, Tris-HCl pH 7.4, read-out: Ki SzeaOBP1.
The mark [2] stands for this setting: displacement of 1-NPN, protein and 1-NPN 2 μM, Tris-HCl pH 7.4, read-out: IC50 SzeaOBP1.
Where [3] appears, read: calculated from IC50 with K1-NPN 7.214 μM, protein and 1-NPN 2 μM, Tris-HCl pH 7.4, read-out: Ki SzeaOP28.
Where [4] appears, read: displacement of 1-NPN, protein and 1-NPN 2 μM, Tris-HCl pH 7.4, read-out: IC50 SzeaOP28.
[5] abbreviates: fluorescence competitive binding.

Sequence of SzeaOBP1 (A0A4P9CZ78 entry or part of it): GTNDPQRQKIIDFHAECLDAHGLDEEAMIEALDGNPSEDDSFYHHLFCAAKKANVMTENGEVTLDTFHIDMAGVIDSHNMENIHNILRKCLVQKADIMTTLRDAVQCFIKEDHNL
Sequence of SzeaOBP28 (A0A4V1GPX2 entry or part of it): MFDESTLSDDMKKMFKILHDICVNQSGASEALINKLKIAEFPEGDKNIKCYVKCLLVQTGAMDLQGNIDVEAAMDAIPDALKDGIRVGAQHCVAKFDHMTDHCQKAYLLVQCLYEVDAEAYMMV

In the case of `CCCCCCCCC=O` [Nonanal], the Ki at SzeaOBP1 (setting [1]) is 4.42 ± 0.095 µM; on SzeaOBP28 (setting [3]), 48.2 ± 1.1 µM. The IC50 came out at 5.18 ± 0.111 µM at SzeaOBP1 (setting [2]) and 58.9 ± 1.34 µM on SzeaOBP28 (setting [4]).
As to `CCCCC/C=C\C/C=C\CCCCCCCC(=O)O` [Linoleic acid], the inhibition constant Ki at SzeaOBP1 (setting [1]) was above 51.2 µM; at SzeaOBP28 (setting [3]), above 49.2 µM. Besides, the IC50 at SzeaOBP1 (setting [2]) and on SzeaOBP28 (setting [4]) was above 60 µM in each case. On SzeaOBP1 (setting [5]), the “binding to SzeaOBP1, in words” value is “did not bind”. The “binding to SzeaOBP28, in words” value on SzeaOBP28 (setting [5]) is reported as “did not bind”.
As to `CCCCCCCCCCCCCCC` [Pentadecane], the inhibition constant (Ki) at SzeaOBP1 (setting [1]) is above 51.2 µM; at SzeaOBP28 (setting [3]), above 49.2 µM. For the same compound, the IC50 at SzeaOBP1 (setting [2]) and at SzeaOBP28 (setting [4]) was above 60 µM in each case.
Take `CCCCCCCCO` [Capryl alcohol]: the results for the Ki at SzeaOBP1 (setting [1]) and at SzeaOBP28 (setting [3]) were 6.67 ± 0.199 µM and above 49.2 µM, respectively. For the same compound, the IC50 at SzeaOBP1 (setting [2]) was 7.81 ± 0.233 µM; at SzeaOBP28 (setting [4]), above 60 µM.
For the compound `CCCCC=O` [Valeraldehyde], the values for the Ki on SzeaOBP1 (setting [1]) and at SzeaOBP28 (setting [3]) were 4.88 ± 0.103 µM and above 49.2 µM, respectively. Also, the IC50 is 5.71 ± 0.121 µM at SzeaOBP1 (setting [2]) and above 60 µM at SzeaOBP28 (setting [4]). Further, in the assay on adult S. zeamais, the “behavioural response (attraction) of male and female adults vs blank control” value (“behavioural response … vs blank control” below) was “responded strongly”.
As for `CCCCCCCCCCCCCCCC(=O)O` [Palmitic Acid, Palmitic acid], the Ki on SzeaOBP1 (setting [1]) was 24.2 ± 1.78 µM; at SzeaOBP28 (setting [3]), 40.8 ± 1.41 µM. Further, the IC50 was found to be 28.3 ± 2.08 µM at SzeaOBP1 (setting [2]) and 49.7 ± 1.72 µM at SzeaOBP28 (setting [4]).
As to `c1ccc(Nc2cccc3ccccc23)cc1` [Ligand 1-NPN, N-Phenyl-1-naphthylamine, reference compound], the Kd on SzeaOBP1 is 8.59 µM; on SzeaOBP28 it was 7.21 µM.
As to `CCC(C)C=O` (centres unmarked) [2-Methylbutyraldehyde], the Ki on SzeaOBP1 (setting [1]) is 4.2 ± 0.087 µM; on SzeaOBP28 (setting [3]), above 49.2 µM. The IC50 was 4.92 ± 0.102 µM on SzeaOBP1 (setting [2]) and above 60 µM at SzeaOBP28 (setting [4]). The “behavioural response … vs blank control” value in the assay on adult S. zeamais is “Significant differences”.
For the compound `CC(C)=O` [Acetone], the Ki on SzeaOBP1 (setting [1]) is 4.54 ± 0.172 µM; at SzeaOBP28 (setting [3]), 39.8 ± 0.731 µM. For the same compound, the IC50 on SzeaOBP1 (setting [2]) worked out at 5.32 ± 0.201 µM; at SzeaOBP28 (setting [4]) it was 48.6 ± 0.861 µM.
Regarding `COCCOC(=O)c1ccccc1C(=O)OCCOC` [Bis(methylglycol) phthalate, Bis(2-methoxyethyl) phthalate], at SzeaOBP1, the IC50 amounted to 4.76 ± 0.147 µM and the Ki came out at 4.07 ± 0.125 µM. For the same compound, at SzeaOBP28, the IC50 is 38.87 ± 0.2 µM and the Ki came out at 31.86 ± 0.164 µM.
For `O=Cc1ccccc1` [Benzaldehyde], at SzeaOBP1, the concentration for half-maximal inhibition (IC50) came out at 5.2 ± 0.092 µM and the inhibition constant Ki stood at 4.44 ± 0.079 µM. Also, on SzeaOBP28, the IC50 is above 60 µM and the Ki was above 49.2 µM.
For the compound `CCCCCCCC=O` [n-Octanaldehyde], the values for the Ki at SzeaOBP1 (setting [1]) and at SzeaOBP28 (setting [3]) were 3.22 ± 0.103 µM and above 49.2 µM, respectively. In addition, the IC50 was 3.77 ± 0.12 µM at SzeaOBP1 (setting [2]) and above 60 µM at SzeaOBP28 (setting [4]). Also, the “behavioural response … vs blank control” value with adult S. zeamais is on record as “no obvious effect”.
Turning to `C=CC(=C)CCC=C(C)C` [Myrcene (stabilized with BHT)], the Ki at SzeaOBP1 (setting [1]) was 30.3 ± 0.798 µM; on SzeaOBP28 (setting [3]) it was above 49.2 µM. Besides, the values for the IC50 at SzeaOBP1 (setting [2]) and at SzeaOBP28 (setting [4]) were 35.5 ± 0.931 µM and above 60 µM, respectively.
For the compound `CCCC(C)=O` [Ligand 2-Pentanone, 2-Pentanone], the IC50 on SzeaOBP1 was 11.6 ± 0.312 µM; on SzeaOBP28 it was above 60 µM. In addition, the Ki at SzeaOBP1 is 9.92 ± 0.267 µM; on SzeaOBP28, above 49.2 µM.

The term Ki denotes a measure of affinity in units of concentration, obtained from inhibition or displacement. One may read the IC50 as the concentration at which inhibition is half-maximal. A word on the Kd: it is the free concentration of one partner at which half of the binding sites on the other are occupied at equilibrium, for simple one-to-one binding.
